{"source": "patent US20250243196A1", "about": "“CITRON KINASE INHIBITORS” (The Cleveland Clinic Foundation, priority 2021, published 2025)", "assay_type_in_all_cases": "biochemical", "key": {"PASK(h)": {"target": "PASK(h) (Homo sapiens (Human), UniProt Q96RG2)", "test": "KinaseProfiler panel", "parameters": "dose or concentration left out as unconfirmed", "conditions": "activity remaining"}, "PKD2(h)": {"target": "PKD2(h) (Homo sapiens (Human), UniProt Q9BZL6)", "test": "KinaseProfiler panel", "parameters": "dose or concentration left out as unconfirmed", "conditions": "activity remaining"}, "TBK1(h)": {"target": "TBK1(h) (Homo sapiens (Human), UniProt Q9UHD2)", "sequence (Q9UHD2 whole entry)": "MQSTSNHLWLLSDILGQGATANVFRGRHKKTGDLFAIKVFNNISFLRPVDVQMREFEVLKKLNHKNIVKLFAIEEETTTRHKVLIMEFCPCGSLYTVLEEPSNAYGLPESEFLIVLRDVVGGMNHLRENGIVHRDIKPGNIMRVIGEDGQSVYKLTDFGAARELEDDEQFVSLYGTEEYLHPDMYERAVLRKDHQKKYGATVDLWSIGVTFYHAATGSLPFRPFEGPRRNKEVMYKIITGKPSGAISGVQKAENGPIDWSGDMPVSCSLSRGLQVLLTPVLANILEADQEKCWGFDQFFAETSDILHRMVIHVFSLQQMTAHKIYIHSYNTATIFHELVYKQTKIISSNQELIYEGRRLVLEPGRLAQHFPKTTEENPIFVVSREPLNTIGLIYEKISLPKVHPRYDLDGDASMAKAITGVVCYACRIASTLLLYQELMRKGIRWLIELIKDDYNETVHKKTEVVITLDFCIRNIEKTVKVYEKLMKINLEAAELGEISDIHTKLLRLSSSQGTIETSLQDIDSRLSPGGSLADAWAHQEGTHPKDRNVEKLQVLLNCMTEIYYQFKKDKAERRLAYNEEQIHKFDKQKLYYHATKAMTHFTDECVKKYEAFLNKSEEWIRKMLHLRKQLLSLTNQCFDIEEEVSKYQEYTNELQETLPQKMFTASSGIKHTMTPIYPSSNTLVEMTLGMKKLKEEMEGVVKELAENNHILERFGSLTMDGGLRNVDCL", "test": "KinaseProfiler panel", "conditions": "activity remaining"}, "CDKL2(h)": {"target": "CDKL2(h) (Homo sapiens (Human), UniProt Q92772)", "sequence (Q92772 whole entry)": "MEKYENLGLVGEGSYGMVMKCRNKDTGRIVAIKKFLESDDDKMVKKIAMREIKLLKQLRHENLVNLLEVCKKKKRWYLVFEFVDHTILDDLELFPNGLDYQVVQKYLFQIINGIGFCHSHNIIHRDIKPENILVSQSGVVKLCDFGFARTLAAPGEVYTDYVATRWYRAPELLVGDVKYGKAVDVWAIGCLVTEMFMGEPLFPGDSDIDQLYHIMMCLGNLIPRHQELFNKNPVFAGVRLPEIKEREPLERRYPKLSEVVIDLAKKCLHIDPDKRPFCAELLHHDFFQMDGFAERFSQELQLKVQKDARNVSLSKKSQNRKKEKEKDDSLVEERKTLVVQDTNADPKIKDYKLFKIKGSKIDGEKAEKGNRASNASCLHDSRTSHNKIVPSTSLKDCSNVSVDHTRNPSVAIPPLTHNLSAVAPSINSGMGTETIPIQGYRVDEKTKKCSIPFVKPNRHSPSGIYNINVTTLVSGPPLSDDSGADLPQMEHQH", "test": "KinaseProfiler panel", "parameters": "dose or concentration left out as unconfirmed", "conditions": "activity remaining"}, "TSSK2(h)": {"target": "TSSK2(h) (Homo sapiens (Human), UniProt Q96PF2)", "test": "KinaseProfiler panel", "parameters": "dose or concentration left out as unconfirmed", "conditions": "activity remaining"}, "PIP5K1g(h)": {"target": "PIP5K1g(h) (Homo sapiens (Human), UniProt O60331)", "test": "KinaseProfiler panel", "conditions": "activity remaining"}, "Pim-1(h)": {"target": "Pim-1(h) (Homo sapiens (Human), UniProt P11309)", "test": "KinaseProfiler panel", "parameters": "dose or concentration left out as unconfirmed", "conditions": "activity remaining"}, "MRCKβ(h)": {"target": "MRCKβ(h) (Homo sapiens (Human), UniProt Q9Y5S2)", "sequence (Q9Y5S2 whole entry)": "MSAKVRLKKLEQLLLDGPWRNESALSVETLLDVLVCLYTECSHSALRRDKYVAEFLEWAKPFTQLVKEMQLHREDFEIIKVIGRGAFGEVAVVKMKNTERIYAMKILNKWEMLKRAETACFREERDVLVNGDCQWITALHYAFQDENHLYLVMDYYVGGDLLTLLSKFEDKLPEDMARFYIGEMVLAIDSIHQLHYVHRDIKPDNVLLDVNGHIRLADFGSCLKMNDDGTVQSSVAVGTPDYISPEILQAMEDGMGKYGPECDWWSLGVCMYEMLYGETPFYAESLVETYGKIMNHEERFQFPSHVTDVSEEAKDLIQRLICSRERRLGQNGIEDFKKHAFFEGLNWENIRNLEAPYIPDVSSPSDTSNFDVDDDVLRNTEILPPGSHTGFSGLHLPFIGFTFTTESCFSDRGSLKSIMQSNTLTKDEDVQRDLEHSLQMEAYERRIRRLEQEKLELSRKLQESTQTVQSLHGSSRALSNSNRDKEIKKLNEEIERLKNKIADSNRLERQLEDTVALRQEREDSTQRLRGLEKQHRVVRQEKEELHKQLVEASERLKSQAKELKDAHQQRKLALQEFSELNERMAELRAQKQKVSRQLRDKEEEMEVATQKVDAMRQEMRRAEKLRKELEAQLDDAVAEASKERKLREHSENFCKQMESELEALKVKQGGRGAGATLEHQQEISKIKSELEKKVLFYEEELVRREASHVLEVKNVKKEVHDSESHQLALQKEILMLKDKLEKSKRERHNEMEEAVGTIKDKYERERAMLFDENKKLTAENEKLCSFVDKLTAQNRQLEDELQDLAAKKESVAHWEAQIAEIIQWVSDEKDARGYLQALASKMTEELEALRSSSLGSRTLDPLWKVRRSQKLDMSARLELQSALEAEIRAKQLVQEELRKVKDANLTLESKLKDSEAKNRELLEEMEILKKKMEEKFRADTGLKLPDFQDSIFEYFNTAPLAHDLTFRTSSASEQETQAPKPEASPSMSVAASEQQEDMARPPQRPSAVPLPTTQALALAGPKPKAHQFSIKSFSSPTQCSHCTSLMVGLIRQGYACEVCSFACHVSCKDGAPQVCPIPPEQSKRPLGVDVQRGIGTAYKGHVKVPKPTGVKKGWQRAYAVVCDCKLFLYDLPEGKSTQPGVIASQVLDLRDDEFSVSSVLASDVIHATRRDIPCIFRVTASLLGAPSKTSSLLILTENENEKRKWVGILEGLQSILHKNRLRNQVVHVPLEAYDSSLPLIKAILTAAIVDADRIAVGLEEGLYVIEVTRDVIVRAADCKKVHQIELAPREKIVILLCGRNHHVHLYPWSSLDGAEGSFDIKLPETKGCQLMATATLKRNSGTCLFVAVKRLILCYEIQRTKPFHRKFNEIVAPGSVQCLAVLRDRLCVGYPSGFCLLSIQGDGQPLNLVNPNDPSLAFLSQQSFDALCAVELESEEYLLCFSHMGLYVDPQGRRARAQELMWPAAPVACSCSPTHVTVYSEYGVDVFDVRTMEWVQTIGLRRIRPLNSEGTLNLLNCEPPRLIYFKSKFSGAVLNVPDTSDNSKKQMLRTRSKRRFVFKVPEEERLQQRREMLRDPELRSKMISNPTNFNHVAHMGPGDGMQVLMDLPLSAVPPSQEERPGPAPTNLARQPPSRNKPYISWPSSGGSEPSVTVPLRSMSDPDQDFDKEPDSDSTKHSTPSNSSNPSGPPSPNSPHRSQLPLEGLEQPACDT", "test": "KinaseProfiler panel", "parameters": "dose or concentration left out as unconfirmed", "conditions": "activity remaining"}, "CLK1(h)": {"target": "CLK1(h) (Homo sapiens (Human), UniProt P49759)", "test": "KinaseProfiler panel", "parameters": "dose or concentration left out as unconfirmed", "conditions": "activity remaining"}, "TSSK3(h)": {"target": "TSSK3(h) (Homo sapiens (Human), UniProt Q96PN8)", "test": "KinaseProfiler panel", "parameters": "dose or concentration left out as unconfirmed", "conditions": "activity remaining"}, "IRAK4(h)": {"target": "IRAK4(h) (Homo sapiens (Human), UniProt Q9NWZ3)", "sequence (Q9NWZ3 whole entry)": "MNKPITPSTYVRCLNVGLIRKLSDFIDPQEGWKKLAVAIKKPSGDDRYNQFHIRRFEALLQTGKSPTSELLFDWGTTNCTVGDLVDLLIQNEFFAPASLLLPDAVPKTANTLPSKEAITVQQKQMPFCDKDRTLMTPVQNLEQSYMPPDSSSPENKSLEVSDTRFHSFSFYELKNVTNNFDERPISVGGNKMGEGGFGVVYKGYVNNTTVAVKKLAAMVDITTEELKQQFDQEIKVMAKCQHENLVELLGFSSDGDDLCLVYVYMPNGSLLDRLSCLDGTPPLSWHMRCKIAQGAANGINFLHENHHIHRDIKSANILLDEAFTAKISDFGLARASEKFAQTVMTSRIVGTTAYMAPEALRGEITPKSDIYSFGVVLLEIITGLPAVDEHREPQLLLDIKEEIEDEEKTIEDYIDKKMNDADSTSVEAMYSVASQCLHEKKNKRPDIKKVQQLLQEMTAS", "test": "KinaseProfiler panel", "parameters": "dose or concentration left out as unconfirmed", "conditions": "activity remaining"}, "CDKL4(h)": {"target": "CDKL4(h) (Homo sapiens (Human), UniProt Q5MAI5)", "sequence (Q5MAI5 whole entry)": "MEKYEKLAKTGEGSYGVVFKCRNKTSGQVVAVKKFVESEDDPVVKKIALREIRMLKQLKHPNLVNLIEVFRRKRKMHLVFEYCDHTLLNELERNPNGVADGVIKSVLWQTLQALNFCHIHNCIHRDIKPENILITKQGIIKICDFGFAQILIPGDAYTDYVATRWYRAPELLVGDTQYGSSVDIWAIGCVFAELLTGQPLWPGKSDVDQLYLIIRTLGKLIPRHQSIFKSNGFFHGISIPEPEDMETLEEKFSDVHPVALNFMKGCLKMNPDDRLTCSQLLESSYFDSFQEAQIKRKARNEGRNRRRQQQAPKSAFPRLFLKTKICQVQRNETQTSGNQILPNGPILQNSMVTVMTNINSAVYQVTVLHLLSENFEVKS", "test": "KinaseProfiler panel", "parameters": "dose or concentration left out as unconfirmed", "conditions": "activity remaining"}, "DNA-PK(h)": {"target": "DNA-PK(h) (Homo sapiens (Human), UniProt P78527)", "test": "KinaseProfiler panel", "parameters": "dose or concentration left out as unconfirmed", "conditions": "activity remaining"}, "ALK(h)": {"target": "ALK(h) (Homo sapiens (Human), UniProt Q9UM73)", "test": "KinaseProfiler panel", "conditions": "activity remaining"}, "MEKK2(h)": {"target": "MEKK2(h) (Homo sapiens (Human), UniProt Q9Y2U5)", "sequence (Q9Y2U5 whole entry)": "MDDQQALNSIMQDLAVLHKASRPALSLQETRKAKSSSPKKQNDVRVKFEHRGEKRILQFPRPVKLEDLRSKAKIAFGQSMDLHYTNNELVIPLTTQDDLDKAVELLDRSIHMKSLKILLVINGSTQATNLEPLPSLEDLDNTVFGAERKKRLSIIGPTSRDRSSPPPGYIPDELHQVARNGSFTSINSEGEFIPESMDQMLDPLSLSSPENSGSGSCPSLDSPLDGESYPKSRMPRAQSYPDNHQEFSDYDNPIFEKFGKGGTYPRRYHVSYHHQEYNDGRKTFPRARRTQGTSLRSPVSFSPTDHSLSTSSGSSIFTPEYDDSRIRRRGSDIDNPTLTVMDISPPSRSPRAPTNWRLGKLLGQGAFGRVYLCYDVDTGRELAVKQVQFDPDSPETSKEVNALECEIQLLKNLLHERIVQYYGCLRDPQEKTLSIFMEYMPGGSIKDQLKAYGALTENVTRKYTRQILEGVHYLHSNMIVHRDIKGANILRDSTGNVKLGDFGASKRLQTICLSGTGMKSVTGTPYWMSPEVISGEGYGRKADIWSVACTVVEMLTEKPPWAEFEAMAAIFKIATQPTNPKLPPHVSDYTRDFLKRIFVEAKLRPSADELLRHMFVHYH", "test": "KinaseProfiler panel", "conditions": "activity remaining"}, "TAO2(h)": {"target": "TAO2(h) (Homo sapiens (Human), UniProt Q9UL54)", "test": "KinaseProfiler panel", "conditions": "activity remaining"}, "Plk1(h)": {"target": "Plk1(h) (Homo sapiens (Human), UniProt P53350)", "sequence (P53350 whole entry)": "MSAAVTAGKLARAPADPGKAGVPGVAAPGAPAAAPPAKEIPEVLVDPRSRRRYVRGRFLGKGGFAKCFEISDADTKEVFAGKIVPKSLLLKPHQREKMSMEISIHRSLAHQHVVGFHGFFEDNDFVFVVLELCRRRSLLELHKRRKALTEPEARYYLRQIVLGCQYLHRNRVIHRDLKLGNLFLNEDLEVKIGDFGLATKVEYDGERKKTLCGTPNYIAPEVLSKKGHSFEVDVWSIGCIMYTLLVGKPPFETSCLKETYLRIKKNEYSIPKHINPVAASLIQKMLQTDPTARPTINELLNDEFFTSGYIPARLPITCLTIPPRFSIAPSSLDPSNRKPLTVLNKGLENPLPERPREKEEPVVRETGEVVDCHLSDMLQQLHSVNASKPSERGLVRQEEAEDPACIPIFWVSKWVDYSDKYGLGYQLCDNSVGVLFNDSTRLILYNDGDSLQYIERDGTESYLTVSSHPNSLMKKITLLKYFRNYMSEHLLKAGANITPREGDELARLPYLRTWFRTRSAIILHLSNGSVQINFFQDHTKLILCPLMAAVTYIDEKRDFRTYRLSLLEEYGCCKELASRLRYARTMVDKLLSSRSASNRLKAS", "test": "KinaseProfiler panel", "parameters": "dose or concentration left out as unconfirmed", "conditions": "activity remaining"}, "PAK1(h)": {"target": "PAK1(h) (Homo sapiens (Human), UniProt Q13153)", "test": "KinaseProfiler panel", "parameters": "dose or concentration left out as unconfirmed", "conditions": "activity remaining"}, "STK39(h)": {"target": "STK39(h) (Homo sapiens (Human), UniProt Q9UEW8)", "test": "KinaseProfiler panel", "conditions": "activity remaining"}, "ULK1(h)": {"target": "ULK1(h) (Homo sapiens (Human), UniProt O75385)", "test": "KinaseProfiler panel", "parameters": "dose or concentration left out as unconfirmed", "conditions": "activity remaining"}, "CDK14/cyclinY(h)": {"target": "CDK14/cyclinY(h) (Homo sapiens (Human), UniProt O94921)", "test": "KinaseProfiler panel", "parameters": "dose or concentration left out as unconfirmed", "conditions": "activity remaining"}, "CDKL1(h)": {"target": "CDKL1(h) (Homo sapiens (Human), UniProt Q00532)", "test": "KinaseProfiler panel", "parameters": "dose or concentration left out as unconfirmed", "conditions": "activity remaining"}, "NEK11(h)": {"target": "NEK11(h) (Homo sapiens (Human), UniProt Q8NG66)", "test": "KinaseProfiler panel", "parameters": "dose or concentration left out as unconfirmed", "conditions": "activity remaining"}, "HIPK4": {"target": "HIPK4 (Homo sapiens (Human), UniProt Q8NE63)", "test": "KinaseProfiler radiometric assay (15-003KP)", "conditions": "mean of at least two independent experiments", "source_text": "In another aspect, disclosed is a method of inhibiting citron kinase in a sample, comprising contacting the sample with a compound described herein (e.g., a compound of formula (I) or a pharmaceutically acceptable salt thereof), or a pharmaceutical composition described herein (e.g., a pharmaceutical composition comprising a compound of formula (I) or a pharmaceutically acceptable salt thereof), in an amount effective to inhibit citron kinase. In some embodiments, the step of contacting the sample with the compound comprises administering the compound to a subject (e.g., a subject) suffering from cancer. Methods of determining kinase inhibition are well known in the art. For example, kinase activity of an enzyme and the inhibitory capacity of a test compound can be determined by measuring enzyme specific phosphorylation of a substrate. Commercial assays and kits can be employed. For example, kinase inhibition can be determined using a radiometric binding assay, such as using KinaseProfiler™ technology (Eurofins Discovery). This assay method directly detects product formation without the use of modified substrates or coupling enzymes. […]\nThe effect of various compounds on the inhibition of other kinases has also been determined. Table 2 reports measured IC50 values; value units are nanomolar inhibition."}, "Rsk1(h)": {"target": "Rsk1(h) (Homo sapiens (Human), UniProt Q15418)", "test": "KinaseProfiler panel", "parameters": "dose or concentration left out as unconfirmed", "conditions": "activity remaining"}, "PKBγ(h)": {"target": "PKBγ(h) (Homo sapiens (Human), UniProt Q9Y243)", "test": "KinaseProfiler panel", "parameters": "dose or concentration left out as unconfirmed", "conditions": "activity remaining"}, "MRCKγ(h)": {"target": "MRCKγ(h) (Homo sapiens (Human), UniProt Q6DT37)", "test": "KinaseProfiler panel", "parameters": "dose or concentration left out as unconfirmed", "conditions": "activity remaining"}}, "data": [{"smiles": "Cc1cc2c(-c3ccc(NC(=O)[C@H](N)CC(C)(C)C)cc3C)ccnc2[nH]1", "note": "[Compound F-90, (2R)-2-Amino-4,4-dimethyl-N-[3-methyl-4-(2-methyl-1H-pyrrolo[2,3-b]pyridin-4-yl)phenyl]pentanamide]", "values": [{"measurement": "% Activity", "setting": "PASK(h)", "value": 72, "unit": "%"}, {"measurement": "% Activity", "setting": "PKD2(h)", "value": 95, "unit": "%"}, {"measurement": "% Activity", "setting": "TBK1(h)", "value": 100, "unit": "%"}, {"measurement": "% Activity", "setting": "CDKL2(h)", "value": 80, "unit": "%"}, {"measurement": "% Activity", "setting": "TSSK2(h)", "value": 113, "unit": "%"}, {"measurement": "% Activity", "setting": "PIP5K1g(h)", "value": 102, "unit": "%"}, {"measurement": "% Activity", "setting": "Pim-1(h)", "value": 95, "unit": "%"}, {"measurement": "% Activity", "setting": "MRCKβ(h)", "value": 100, "unit": "%"}, {"measurement": "% Activity", "setting": "CLK1(h)", "value": 88, "unit": "%"}, {"measurement": "% Activity", "setting": "TSSK3(h)", "value": 96, "unit": "%"}, {"measurement": "% Activity", "setting": "IRAK4(h)", "value": 90, "unit": "%"}, {"measurement": "% Activity", "setting": "CDKL4(h)", "value": 104, "unit": "%"}, {"measurement": "% Activity", "setting": "DNA-PK(h)", "value": 107, "unit": "%"}, {"measurement": "% Activity", "setting": "ALK(h)", "value": 77, "unit": "%"}, {"measurement": "% Activity", "setting": "MEKK2(h)", "value": 122, "unit": "%"}, {"measurement": "% Activity", "setting": "TAO2(h)", "value": 90, "unit": "%"}, {"measurement": "% Activity", "setting": "Plk1(h)", "value": 111, "unit": "%"}, {"measurement": "% Activity", "setting": "PAK1(h)", "value": 95, "unit": "%"}, {"measurement": "% Activity", "setting": "STK39(h)", "value": 102, "unit": "%"}, {"measurement": "% Activity", "setting": "ULK1(h)", "value": 95, "unit": "%"}, {"measurement": "% Activity", "setting": "CDK14/cyclinY(h)", "value": 91, "unit": "%"}, {"measurement": "% Activity", "setting": "CDKL1(h)", "value": 99, "unit": "%"}, {"measurement": "% Activity", "setting": "NEK11(h)", "value": 97, "unit": "%"}, {"measurement": "IC50", "setting": "HIPK4", "value": 2280, "unit": "nM"}, {"measurement": "% Activity", "setting": "Rsk1(h)", "value": 99, "unit": "%"}, {"measurement": "% Activity", "setting": "PKBγ(h)", "value": 101, "unit": "%"}, {"measurement": "% Activity", "setting": "MRCKγ(h)", "value": 98, "unit": "%"}]}]}
